Data: patent US10899733B2, “Inhibitors of PARPs that catalyze mono-ADP-ribosylation” (OREGON HEALTH & SCIENCE UNIVERSITY, priority 2017, dated 2021)

Legend:
Type in all cases: biochemical
PARP11 = target: T1, PARP11 (Homo sapiens, UniProt Q9NR21); assay: Inhibition of PARP11-mediated ADP-ribosylation of SRPK2 using NAD+ (100 μM); settings: ADP-ribosylation of SRPK2, NAD+ 100 μM
T1 sequence (Q9NR21 1-338): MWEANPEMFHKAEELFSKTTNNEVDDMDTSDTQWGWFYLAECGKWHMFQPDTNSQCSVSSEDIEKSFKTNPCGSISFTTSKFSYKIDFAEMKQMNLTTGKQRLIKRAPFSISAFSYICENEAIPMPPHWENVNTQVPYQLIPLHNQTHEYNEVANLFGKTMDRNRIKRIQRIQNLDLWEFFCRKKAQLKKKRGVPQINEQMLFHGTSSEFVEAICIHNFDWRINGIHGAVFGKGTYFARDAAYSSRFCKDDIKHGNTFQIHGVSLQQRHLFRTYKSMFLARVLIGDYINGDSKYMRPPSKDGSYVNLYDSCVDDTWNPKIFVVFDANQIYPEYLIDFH

PARP6S = PARP6S (Homo sapiens, UniProt Q2NL67); assay: PARP panel: ADP-ribosylation of SRPK2 using 6-a-NAD+
PARP12 = target: T2, PARP12 (Homo sapiens, UniProt Q9H0J9); assay: as above
T2 sequence (Q9H0J9 1-701): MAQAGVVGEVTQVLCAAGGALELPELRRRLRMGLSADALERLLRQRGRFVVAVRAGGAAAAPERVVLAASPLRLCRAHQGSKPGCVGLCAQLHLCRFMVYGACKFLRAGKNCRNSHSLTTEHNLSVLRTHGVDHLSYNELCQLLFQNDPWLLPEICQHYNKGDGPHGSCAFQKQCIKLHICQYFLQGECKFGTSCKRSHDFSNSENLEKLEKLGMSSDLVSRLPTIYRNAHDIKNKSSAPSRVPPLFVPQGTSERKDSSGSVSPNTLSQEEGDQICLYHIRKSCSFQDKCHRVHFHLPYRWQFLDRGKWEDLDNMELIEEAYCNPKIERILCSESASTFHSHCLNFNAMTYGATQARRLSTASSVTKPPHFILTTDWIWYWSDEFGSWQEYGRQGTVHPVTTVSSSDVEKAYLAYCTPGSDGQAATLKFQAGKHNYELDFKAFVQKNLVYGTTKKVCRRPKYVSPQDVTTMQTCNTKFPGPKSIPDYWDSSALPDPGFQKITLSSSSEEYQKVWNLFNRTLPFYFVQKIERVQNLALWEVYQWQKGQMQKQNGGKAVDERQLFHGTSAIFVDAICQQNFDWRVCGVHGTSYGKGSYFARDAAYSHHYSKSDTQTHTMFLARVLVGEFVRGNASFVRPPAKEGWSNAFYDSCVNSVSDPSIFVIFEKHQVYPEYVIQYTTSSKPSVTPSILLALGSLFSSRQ

Chain of PARP6S (Q2NL67 1-518 isoform Q2NL67-2): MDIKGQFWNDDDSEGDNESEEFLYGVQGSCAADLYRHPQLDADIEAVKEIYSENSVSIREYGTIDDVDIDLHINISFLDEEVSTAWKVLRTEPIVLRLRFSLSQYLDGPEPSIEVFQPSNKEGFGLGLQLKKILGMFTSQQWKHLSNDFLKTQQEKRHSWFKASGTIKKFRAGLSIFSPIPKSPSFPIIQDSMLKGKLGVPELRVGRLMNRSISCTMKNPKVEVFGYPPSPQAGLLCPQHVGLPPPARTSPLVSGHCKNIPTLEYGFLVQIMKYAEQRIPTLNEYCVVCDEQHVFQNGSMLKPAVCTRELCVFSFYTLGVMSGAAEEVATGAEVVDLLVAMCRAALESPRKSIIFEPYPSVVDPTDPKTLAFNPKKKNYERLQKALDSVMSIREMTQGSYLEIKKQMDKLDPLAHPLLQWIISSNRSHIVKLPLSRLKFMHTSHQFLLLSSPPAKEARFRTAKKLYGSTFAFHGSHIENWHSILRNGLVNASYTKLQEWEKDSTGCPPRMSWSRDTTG

Cc1c(-c2ccnc(C(F)(F)F)c2)ccc2c1CCNC2=O [Compound 22, 5-methyl-6-(2-(trifluoromethyl)pyridin-4-yl)-3,4-dihydroisoquinolin-1(2H)-one]
IC50 (PARP11): 51.7 µM
PARP11 pIC50 ± S.E.M. (PARP11): 4.29 ± 0.04
IC50 (PARP6S; 6-a-NAD+): > 30 µM
PARP/PARP10 (PARP6S; PARP6S over PARP10cat): >10
IC50 (PARP12; 6-a-NAD+): > 30 µM
PARP/PARP10 (PARP12; PARP12 over PARP10cat): >10
